Reference: patent US9862998B2, “Conformational probes and methods for sequencing nucleic acids” (Illumina, Inc., priority 2010, dated 2018)
Entries after “also recorded” stand apart in the source; their conditions may differ.

B1: Cy3AF647: RB69V510CE766C polymerase labeled with donor/acceptor pair Cy3/AF647 at cysteine residues (conjugate, UniProt Q38087 1-903, looked up, variant V510C E766C)
DNA-directed DNA polymerase: MKEFYLTVEQIGDSIFERYIDSNGRERTREVEYKPSLFAHCPESQATKYFDIYGKPCTRKLFANMRDASQWIKRMEDIGLEALGMDDFKLAYLSDTYNYEIKYDHTKIRVANFDIEVTSPDGFPEPSQAKHPIDAITHYDSIDDRFYVFDLLNSPYGNVEEWSIEIAAKLQEQGGDEVPSEIIDKIIYMPFDNEKELLMEYLNFWQQKTPVILTGWNVESFDIPYVYNRIKNIFGESTAKRLSPHRKTRVKVIENMYGSREIITLFGISVLDYIDLYKKFSFTNQPSYSLDYISEFELNVGKLKYDGPISKLRESNHQRYISYNIIDVYRVLQIDAKRQFINLSLDMGYYAKIQIQSVFSPIKTWDAIIFNSLKEQNKVIPQGRSHPVQPYPGAFVKEPIPNRYKYVMSFDLTSLYPSIIRQVNISPETIAGTFKVAPLHDYINAVAERPSDVYSCSPNGMMYYKDRDGVVPTEITKVFNQRKEHKGYMLAAQRNGEIIKEALHNPNLSCDEPLDVDYRFDFSDEIKEKIKKLSAKSLNEMLFRAQRTEVAGMTAQINRKLLINSLYGALGNVWFRYYDLRNATAITTFGQMALQWIERKVNEYLNEVCGTEGEAFVLYGDTDSIYVSADKIIDKVGESKFRDTNHWVDFLDKFARERMEPAIDRGFREMCEYMNNKQHLMFMDREAIAGPPLGSKGIGGFWTGKKRYALNVWDMEGTRYAEPKLKIMGLETQKSSTPKAVQKALKECIRRMLQEGEESLQEYFKCFEKEFRQLNYISIASVSSANNIAKYDVGGFPGPKCPFHIRGILTYNRAIKGNIDAPQVVEGEKVYVLPLREGNPFGDKCIAWPSGTEITDLIKDDVLHWMDYTVLLEKTFIKPLEGFTSAAKLDYEKKASLFDMFDF
modifications: Cy3/AF647 dye labels
notes: RB69V510CE766C polymerase labeled with donor/acceptor pair Cy3/AF647 at cysteine residues
B2: CF555AF647: RB69V510CE766C polymerase labeled with donor/acceptor pair CF555/AF647 at cysteine residues (conjugate, UniProt Q38087 1-903, looked up, variant V510C E766C)
DNA-directed DNA polymerase: B1 DNA-directed DNA polymerase
modifications: CF555/AF647 dye labels
notes: RB69V510CE766C polymerase labeled with donor/acceptor pair CF555/AF647 at cysteine residues

How the values were obtained:
Assay type in all cases: biochemical
[1] = biological target: T1, 5-TAMRA Pol β (W325C Pol β) (Homo sapiens, UniProt P06746, W325C); experiment: Stopped-flow 5-TAMRA fluorescence detection of nucleotide incorporation by 5-TAMRA Pol β; details: for amplitudes and durations for the 5-TAMRA emission shift: incorporated at an appropriate position in a template-bound primer, FIG. 10, 11, 13
T1 construct: made in house; host or cells: E. coli BL21(DE3)
Procedure: 5-TAMRA Pol β was prepared as follows. Human Pol β was mutated to replace Tryptophan 325 (in the fingers domain) with cysteine to produce W325C Pol β. Standard mutagenesis techniques were used to produce W325C Pol β as described in Example III. The W325C Pol β was cloned in the pET15b plasmid, expressed in E. coli BL21(DE3) cells and purified as described in Dunlap and Tsai, Biochemistry, 41 (37): 11226-11235 (2002), which is incorporated herein by reference. The purified W325C Pol β was chemically modified to introduce the 5-TAMRA fluorescent dye at cysteine 325, thereby producing 5-TAMRA Pol β.
Conformational changes in the 5-TAMRA Pol β enzyme from the open to closed state can be detected based on a fluorescent emission change from the environmentally sensitive 5-TAMRA dye. The spectral and emission intensity changes from the 5-TAMRA dye when the polymerase changes to the closed state. The 5-TAMRA Pol β enzyme can be bound to a primer-template nucleic acid complex in an open conformation. In the open conformation the 5-TAMRA dye when excited with light at a wavelength of 542 nm will emit fluorescence at a wavelength of 568 nm. However upon binding of an appropriate nucleotide to the 5-TAMRA Pol β-primer-template binary complex, the 5-TAMRA Pol β enzyme changes from the open state to the closed state causing the 5-TAMRA dye to experience a different environment. This change in environment results in a detectable fluorescent emission change from the TAMRA dye at the wavelength of 568 nm. As such, binding of the appropriate nucleotide can be detected as a fluorescent emission change at 568 nm wavelength. Furthermore, differential time durations of the closed state can be used to distinguish different nucleotides that are incorporated into the primer by 5-TAMRA Pol β.
The real-time fluorescence change from 5-TAMRA Pol β was measured in the Applied Photophysics SX20 stopped-flow spectrometer by monitoring changes in 5-TAMRA dye fluorescence following the mixing of the 5-TAMRA Pol β-DNA binary complex with a nucleotide in a reaction buffer containing 50 mM Tris-HCl, pH 7.5, 50 mM KCl, 1 mM Dithiothreitol and 5 mM MgCl2 as described in Example III.
(§1) Dual labeled KF was produced as described in Example III. FRET from dual labeled KF was measured by stopped flow kinetics also as described in Example III. 5-TAMRA Pol β was prepared as described in Example IV. The real time fluorescence change from 5-TAMRA Pol β was measured by stopped flow kinetics also as described in Example IV.

[2] = biological target: Alexa 488 and 532 dual-labeled KF (K550C/L744C/C907G Klenow Fragment) (Escherichia coli, UniProt P00582, C907G/K550C/L744C); set-up: made in house; host or cells: E. coli BL21(DE3); details: for time durations of the FRET signal for incorporation into the primer: AF488 donor fluorescence, stopped flow, FIG. 5-7; for FRET duration, correct versus incorrect incorporation: position complementary to cytosine, dGTP correct, dCTP incorrect, FIG. 8; for AF488 fluorescence duration measured for the incorporation: dTTP versus Gamma-ANS-dTTP, FIG. 12
From the text: The Klenow Fragments (KF) was produced as follows. KF was mutated to replace cysteine 907 with glycine, to replace leucine 744 (in the fingers domain) with cysteine and to replace lysine 550 (in the thumb domain) with cysteine, thereby producing K550C/L744C/C907G KF. Standard mutagenesis techniques were used to produce K550C/L744C/C907G KF as described in the manual of the QuikChange® site-directed mutagenesis kit from Stratagene/Agilent (La Jolla, Calif.). The K550C/L744C/C907G KF was cloned into the pET15b plasmid using the NdeI and BamHI restriction sites, and expressed in E. coli BL21(DE3) cells. The K550C/L744C/[…] KF was purified as described in Joyce, et al. Biochemistry, 47 (23): 6103-6116 (2008), which is incorporated herein by reference. The purified K550C/L744C/C907C KF was chemically modified using the thiol-reactive maleimide to introduce the Alexa488 fluorescent donor dye at cysteine 550
Conformational changes in the dual labeled KF enzyme from the open to closed state can be detected based on fluorescence resonance energy transfer (FRET) between the AF488 fluorescent donor dye on the thumb domain and AF532 fluorescence acceptor dye on the fingers domain. The KF enzyme can be bound to a primer-template nucleic acid complex in an open conformation. In the open conformation the AF488 fluorescent donor dye when excited with light at a wavelength of 495 nm will emit fluorescence at a wavelength of 519 nm. However, upon binding of an appropriate nucleotide to the dual labeled KF-template-primer complex the dual labeled KF enzyme changes from the open state to the closed state. The closed state brings the AF488 fluorescent donor dye on the thumb domain into proximity with the AF532 fluorescence acceptor dye on the finger domain such that the AF488 fluorescent donor dye when excited transfers energy to the AF532 fluorescence acceptor dye. This FRET results in a detectable emission from the AF532 fluorescence acceptor dye at a wavelength of […]. As such, binding of the appropriate nucleotide can be detected as increased emission at 554 nm wavelength. Furthermore, differential time durations of the closed state can be used to distinguish different nucleotides that are incorporated into the primer by dual labeled KF.
The real-time fluorescence change from dual labeled KF was measured in an Applied Photophysics SX20 stopped-flow spectrometer by monitoring changes in AF 488 dye fluorescence following the mixing of the PolI(KF)-DNA binary complex with a nucleotide in the reaction buffer containing 10 mM Tris-HCl, pH 8.0, 50 mM NaCl, 1 mM dithiothreitol and 10 mM MgCl2.
as §1

[3] = system: nucleic acid duplex of extendable 3'-OH primer and AF488 template; experiment: FRET-based primer extension assay (AF488 quenching); details: AF488 quenching over time by Cy3-dCTP incorporation, FIG. 16
Procedure: Functionality of the Cy3AF647 and CF555AF647 conjugates of RB69V510CE766C were confirmed using a FRET-based primer extension assay as follows. Extension was carried out on a nucleic acid duplex composed of an extendable 3′-OH primer and a template with a 7 base overhang. The extendable sequence was TGGAACG. In addition, the template contained an AF488 dye at the 5′ position. The extension reaction mix was composed of 50 mM ACES pH 7.2, 50 mM NaCl, 10 mM DTT, 10 mM Mg′, 1 μM dTTP, 1 μM dGTP, 1 μM dATP and 0.1 μM Cy3-dCTP. Upon extension, the Cy3 quenches the AF488. The control reactions were carried out under the same conditions except that dTTP was removed to prevent extension. A SpectraMax M5 plate reader was used to monitor the AF488 quenching over time. […] The plot confirms that both conjugates were functional in extending a primed nucleic acid.

Sequence of Alexa 488 and 532 dual-labeled KF (K550C/L744C/C907G Klenow Fragment) (P00582 324-928 K550C/L744C/C907G): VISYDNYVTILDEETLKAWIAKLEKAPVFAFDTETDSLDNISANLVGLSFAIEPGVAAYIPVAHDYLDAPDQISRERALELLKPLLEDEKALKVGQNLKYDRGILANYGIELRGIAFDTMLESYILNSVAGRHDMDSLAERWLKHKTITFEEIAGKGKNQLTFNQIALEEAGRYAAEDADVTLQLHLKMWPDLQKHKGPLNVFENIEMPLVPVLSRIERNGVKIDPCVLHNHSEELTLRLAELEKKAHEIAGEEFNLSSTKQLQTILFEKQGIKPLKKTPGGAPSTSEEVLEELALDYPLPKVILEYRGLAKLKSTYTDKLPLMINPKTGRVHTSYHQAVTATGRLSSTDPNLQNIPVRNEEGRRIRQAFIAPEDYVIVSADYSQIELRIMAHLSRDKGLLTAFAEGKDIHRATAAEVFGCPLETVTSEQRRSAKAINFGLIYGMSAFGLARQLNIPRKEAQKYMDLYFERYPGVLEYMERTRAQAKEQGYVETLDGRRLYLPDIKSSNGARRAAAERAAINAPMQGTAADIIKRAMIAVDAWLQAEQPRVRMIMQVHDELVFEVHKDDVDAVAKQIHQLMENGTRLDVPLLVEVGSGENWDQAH

Row | Molecule | amplitudes and durations for the 5-TAMRA emission shift [1] | time durations of the FRET signal for incorporation into the primer [2] | also measured
1 | 1-alpha-borano-dCTP | could be distinguished from each other | substantially different | –
2 | Nc1ccn([C@H]2C[C@H](O)[C@@H](COP(O)(=S)OP(=O)(O)OP(=O)(O)O)O2)c(=O)n1 (stereo partly drawn) [1-alpha-thiol-dCTP] | – | substantially different | –
3 | Nc1ncnc2c1ncn2[C@H]1C[C@H](O)[C@@H](COP(=O)(O)OP(=O)(O)OP(=O)(O)O)O1 [dATP] | different amplitudes and durations | very similar | –
4 | Nc1ccn([C@H]2C[C@H](O)[C@@H](COP(=O)(O)OP(=O)(O)OP(=O)(O)O)O2)c(=O)n1 [dCTP] | different amplitudes and durations | – | incorporation detected by wavelength shift for the 5-TAMRA dye ([1]; correct or incorrect nucleotide, FIG. 9A, 9B): could be detected; FRET duration, correct versus incorrect incorporation [2]: could be distinguished
5 | Nc1nc2c(ncn2[C@H]2C[C@H](O)[C@@H](COP(=O)(O)OP(=O)(O)OP(=O)(O)O)O2)c(=O)[nH]1 [dGTP] | different amplitudes and durations | very similar | FRET duration, correct versus incorrect incorporation [2]: could be distinguished
6 | Cc1cn([C@H]2C[C@H](O)[C@@H](COP(=O)(O)OP(=O)(O)OP(=O)(O)O)O2)c(=O)[nH]c1=O [dTTP] | different amplitudes and durations; also recorded: could be distinguished from each other | – | AF488 fluorescence duration measured for the incorporation [2]: substantially different
7 | O=c1ccn([C@H]2C[C@H](O)[C@@H](COP(=O)(O)OP(=O)(O)OP(=O)(O)O)O2)c(=O)[nH]1 [dUTP] | – | differed | –
8 | Gamma-ANS-dTTP | could be distinguished from each other | – | AF488 fluorescence duration measured for the incorporation [2]: substantially different
9 | B1 | – | – | functionality in extending a primed nucleic acid [3]: functional
10 | B2 | – | – | functionality in extending a primed nucleic acid [3]: functional
